Target: KRAS G12C (Homo sapiens, UniProt P01116, G12C)
Test: KRAS G12C nucleotide exchange assay (SOS1-mediated, mant-GDP fluorescence)
Format: biochemical
Design: KRas(1-169) G12C protein
Settings: 15 min pre-incubation
Procedure: Assay 1: KRAS G12C Nucleotide Exchange Assay
1×Loading buffer: 20 mM HEPES, pH 7.5, 50 mM NaCl, 0.5 mM MgCl2, 1 mM DTT, 5 mM EDTA
1×Equilibration buffer: 20 mM HEPES, pH 7.5, 150 mM NaCl, 1 mM MgCl2, 1 mM DTT
1×Assay buffer: 20 mM HEPES, pH 7.5, 150 mM NaCl, 1 mM MgCl2, 0.01% Tween-20, 1 mM DTT
2. Load Mant GDP to KRAS G12C:
a. A mixed solution of 100 µL mant GDP and KRAS G12C was prepared with 1×loading buffer: 60 um KRAS G12C, 600 um […], incubated at room temperature for 60 minutes, and the reaction was carried out in dark conditions.
b. Add 1 uL 1 m MgCl2 (final concentration 10 mm) to stop the reaction, mix the solution upside down in the centrifuge tube, centrifugate for 3-5 seconds, and incubate at room temperature for 30 minutes.
c. At the same time of incubation for 30 minutes, balance nap-5 column with 10 ml ix equipment buffer until no liquid drops.
d. Drop the mixed solution of 100 uL mant GDP and KRAS G12C into the center of nap-5 column. After the sample completely enters nap-5 column, add 400 µL 1× equipment buffer until no liquid drops.
e. Add 500 ul 1× equipment buffer for elution and collect eluant.
f. Determination of KRAS G12C mant GDP with Bradford protein quantitative Kit.
3. Nucleotide Exchange Experiment:
a. Transfer 50 NL DMSO/compound to 384 well plate with echo550.
b. 10 uL enzyme mix was added into 384 pore plate and incubated with DMSO/compound for 15 min.
c. Initial reaction with 10 µL Sos1/GTP mix.
d. Immediately after reaction, read ex360/em440 fluorescence value in kinetic mode with Nivo.
a. Use Graphpad software to process data and draw pictures.
b. K value is obtained in Graphpad software by fitting One phase experimental deck model.
c. Z′=1-3*(SdKmax+SdKmin)/(AveKmax−AveKmin)
d. In % is calculated by the following formula:
Inh%=(Kmax−Ksample)/(Kmax−Kmin)*100

Chain of KRAS G12C (P01116 1-169 isoform P01116-2 G12C): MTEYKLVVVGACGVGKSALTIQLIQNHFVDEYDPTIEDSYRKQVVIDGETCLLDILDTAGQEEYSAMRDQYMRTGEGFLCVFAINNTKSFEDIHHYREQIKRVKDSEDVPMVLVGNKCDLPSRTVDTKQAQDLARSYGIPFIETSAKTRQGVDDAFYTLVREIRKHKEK

Compound	IC50 [nM]
C=CC(=O)N1CCN(c2nc(OC[C@@H]3CCCN3C)nc3c(=O)n(-c4cccc5cccc(C6CC6)c45)c(C)nc23)C[C@@H]1CC#N [Compound 10, 2-((S)-1-acryloyl-4-(7-(8-cyclopropylnaphthalen-1-yl)-6-methyl-2-(((S)-1-methylpyrrolidin-2-yl)methoxy)-8-oxo-7,8-dihydropyrimido [5,4-d]pyrimidin-4-yl)piperazin-2-yl)acetonitrile]	840
C=CC(=O)N1CCN(c2nc(OC[C@@H]3CCCN3C)nc3c(=O)n(-c4cccc5ccccc45)cnc23)CC1 [Compound 5, (S)-8-(4-acryloylpiperazin-1-yl)-6-((1-methylpyrrolidin-2-yl)methoxy)-3-(naphthalen-1-yl)pyrimido[5,4-d]pyrimidin-4(3H)-one]	52300
C=CC(=O)N1CCN(c2nc(OC[C@@H]3CCCN3C)nc3c2CCCC(c2c(C)ccc4[nH]ncc24)C3)CC1 (stereo partly drawn) [Compound 20, 1-(4-(8-(5-methyl-1H-indazol-4-yl)-2-(((S)-1-methylpyrrolidin-2-yl)methoxy)-6,7,8,9-tetrahydro-5H-cyclohepta[d]pyrimidin-4-yl)piperazin-1-yl)prop-2-en-1-one]	2880
C=CC(=O)N1CCN(c2nc(OC[C@@H]3CCCN3C)nc3c(=O)n(-c4cccc5cccc(C)c45)c(C)nc23)CC1 [Compound 6, (S)-8-(4-acryloylpiperazin-1-yl)-2-methyl-3-(8-methylnaphthalen-1-yl)-6-((1-methylpyrrolidin-2-yl)methoxy)pyrimido[5,4-d]pyrimidin-4(3H)-one]	1780
C=CC(=O)N1CCN(c2nc(OC[C@@H]3CCCN3C)nc3c(=O)n(-c4cccc5ccccc45)c(C)nc23)CC1 [Example 1, (S)-8-(4-acryloylpiperazin-1-yl)-2-methyl-6-((1-methylpyrrolidin-2-yl)methoxy)-3-(naphthalen-1-yl)pyrimido[5,4-d]pyrimidin-4(3H)-one]	35400
C=CC(=O)N1CCN(c2nc(OC[C@@H]3CCCN3C)nc3c(=O)n(-c4cccc5cccc(Cl)c45)c(C)nc23)CC1 [Compound 3, (S)-8-(4-acryloylpiperazin-1-yl)-3-(8-chloronaphthalen-1-yl)-2-methyl-6-((1-methylpyrrolidin-2-yl)methoxy)pyrimido[5,4-d]pyrimidin-4(3H)-one]	8240
C=CC(=O)N1CCN(c2nc(OC[C@@H]3CCCN3C)nc3c(=O)n(-c4c(C)c(C)cc5[nH]ncc45)c(C)nc23)C[C@@H]1CC#N [Compound 16, 2-((S)-1-acryloyl-4-(7-(5,6-dimethyl-1H-indazol-4-yl)-6-methyl-2-(((S)-1-methylpyrrolidin-2-yl)methoxy)-8-oxo-7,8-dihydropyrimido[5,4-d]pyrimidin-4-yl)piperazin-2-yl)acetonitrile]	820
C=CC(=O)N1CCN(c2nc(OC[C@@H]3CCCN3C)nc3c(=O)n(-c4cc(OC)cc5ccccc45)c(C)nc23)C[C@@H]1CC#N [Compound 12, 2-((S)-1-acryloyl-4-(7-(3-methoxynaphthalen-1-yl)-6-methyl-2-(((S)-1-methylpyrrolidin-2-yl)methoxy)-8-oxo-7,8-dihydropyrimido[5,4-d]pyrimidin-4-yl)piperazin-2-yl)acetonitrile]	900
C=CC(=O)N1CCN(c2nc(OC[C@@H]3CCCN3C)nc3c(=O)n(-c4cccc5ncccc45)c(C)nc23)C[C@@H]1CC#N [Compound 15, 2-((S)-1-acryloyl-4-(6-methyl-2-(((S)-1-methylpyrrolidin-2-yl)methoxy)-8-oxo-7-(quinolin-5-yl)-7,8-dihydropyrimido[5,4-d]pyrimidin-4-yl)piperazin-2-yl)acetonitrile]	2930

Continued by falling IC50, values first:

IC50 [nM]	Compound
60700	C=CC(=O)N1C[C@H](C)N(c2nc(OC[C@@H]3CCCN3C)nc3c(=O)n(-c4cccc5cccc(Cl)c45)c(C)nc23)C[C@@H]1C [Compound 8, 8-((2S,5S)-4-acryloyl-2,5-dimethylpiperazin-1-yl)-3-(8-chloronaphthalen-1-yl)-2-methyl-6-(((S)-1-methylpyrrolidin-2-yl)methoxy)pyrimido[5,4-d]pyrimidin-4(3H)-one]
22900	C=CC(=O)N1CCN(c2nc(OC[C@@H]3CCCN3C)nc3c(=O)n(-c4c(C)ccc5[nH]ncc45)c(C)nc23)CC1 [Compound 22, (S)-8-(4-acryloylpiperazin-1-yl)-2-methyl-3-(5-methyl-1H-indazol-4-yl)-6-((1-methylpyrrolidin-2-yl)methoxy)pyrimido[5,4-d]pyrimidin-4(3H)-one]
19000	C=CC(=O)N(C)C1CCN(c2nc(OC[C@@H]3CCCN3C)nc3c2CCN(c2cccc4cccc(Cl)c24)C3)C1 (stereo partly drawn) [Compound 21, N-(1-(7-(8-chloronaphthalen-1-yl)-2-(((S)-1-methylpyrrolidin-2-yl)methoxy)-5,6,7,8-tetrahydropyrido[3,4-d]pyrimidin-4-yl)pyrrolidin-3-yl)-N-methylacrylamide]
9970	C=CC(=O)N1CCN(c2nc(OC[C@@H]3CCCN3C)nc3c(=O)n(-c4cccc5ccccc45)c(-c4ccccc4)nc23)CC1 [Compound 18, (S)-8-(4-acryloylpiperazin-1-yl)-6-((1-methylpyrrolidin-2-yl)methoxy)-3-(naphthalen-1-yl)-2-phenylpyrimido[5,4-d]pyrimidin-4(3H)-one]
2940	C=CC(=O)N1CCN(c2nc(OC[C@@H]3CCCN3C)nc3c(=O)n(-c4cccc5cccc(C(=C)C)c45)c(C)nc23)C[C@@H]1CC#N [Compound 11, 2-((S)-1-acryloyl-4-(6-methyl-2-(((S)-1-methylpyrrolidin-2-yl)methoxy)-8-oxo-7-(8-(prop-1-en-2-yl)naphthalen-1-yl)-7,8-dihydropyrimido[5,4-d]pyrimidin-4-yl)piperazin-2-yl)acetonitrile]
1070	C=CC(=O)N1CCN(c2nc(OC[C@@H]3CCCN3C)nc3c(=O)n(-c4cccc5cccc(CC)c45)c(C)nc23)C[C@@H]1CC#N [Compound 9, 2-((S)-1-acryloyl-4-(7-(8-ethylnaphthalen-1-yl)-6-methyl-2-(((S)-1-methylpyrrolidin-2-yl)methoxy)-8-oxo-7,8-dihydropyrimido[5,4-d]pyrimidin-4-yl)piperazin-2-yl)acetonitrile]
860	C=CC(=O)N1CCN(c2nc(OC[C@@H]3CCCN3C)nc3c(=O)n(-c4cccc5ccccc45)c(CC)nc23)C[C@@H]1CC#N [Compound 14, 2-((S)-1-acryloyl-4-(6-ethyl-2-(((S)-1-methylpyrrolidin-2-yl)methoxy)-7-(naphthalen-1-yl)-8-oxo-7,8-dihydropyrimido[5,4-d]pyrimidin-4-yl)piperazin-2-yl)acetonitrile]
710	C=CC(=O)N1CCN(c2nc(OC[C@@H]3CCCN3C)nc3c(=O)n(-c4c(C)ccc5[nH]ncc45)c(C)nc23)C[C@@H]1CC#N [Compound 23, 2-((S)-1-acryloyl-4-(6-methyl-7-(5-methyl-1H-indazol-4-yl)-2-(((S)-1-methylpyrrolidin-2-yl)methoxy)-8-oxo-7,8-dihydropyrimido[5,4-d]pyrimidin-4-yl)piperazin-2-yl)acetonitrile]
480	C=CC(=O)N1CCN(c2nc(OC[C@@H]3CCCN3C)nc3c(=O)n(-c4cccc5ccccc45)c(-c4ccccc4)nc23)C[C@@H]1CC#N [Compound 17, 2-((S)-1-acryloyl-4-(2-(((S)-1-methylpyrrolidin-2-yl)methoxy)-7-(naphthalen-1-yl)-8-oxo-6-phenyl-7,8-dihydropyrimido[5,4-d]pyrimidin-4-yl)piperazin-2-yl)acetonitrile]
390	C=CC(=O)N1CCN(c2nc(OC[C@@H]3CCCN3C)nc3c(=O)n(-c4cccc5cccc(C)c45)c(C)nc23)C[C@@H]1CC#N [Compound 7, 2-((S)-1-acryloyl-4-(6-methyl-7-(8-methylnaphthalen-1-yl)-2-(((S)-1-methylpyrrolidin-2-yl)methoxy)-8-oxo-7,8-dihydropyrimido[5,4-d]pyrimidin-4-yl)piperazin-2-yl)acetonitrile]
390	C=CC(=O)N1CCN(c2nc(OC[C@@H]3CCCN3C)nc3c(=O)n(-c4cccc5cccc(Cl)c45)c(CC)nc23)C[C@@H]1CC#N [Compound 13, 2-((S)-1-acryloyl-4-(7-(8-chloronaphthalen-1-yl)-6-ethyl-2-(((S)-1-methylpyrrolidin-2-yl)methoxy)-8-oxo-7,8-dihydropyrimido[5,4-d]pyrimidin-4-yl)piperazin-2-yl)acetonitrile]

Reference: US20230212170A1, “INHIBITORS OF KRAS G12C PROTEIN AND USES THEREOF” (SHANGHAI ANTENGENE CORPORATION LIMITED, priority 2020, published 2023)
